Measured values from the NIST ThermoML archive (doi:10.1021/acs.jced.5b00613).
Numbers after ± are expanded uncertainties.

Details: Liquid, Vibrating tube method

CCCCCC [hexane]
mass density [kg/m3]
Details	100 kPa	1000 kPa	5000 kPa	10000 kPa	20000 kPa	30000 kPa	40000 kPa	50000 kPa	60000 kPa
278.15 K	673.3 ± 0.7	673.9 ± 0.7	677.6 ± 0.8	681.8 ± 0.8	689.6 ± 0.8	696.8 ± 0.9	703.2 ± 0.9	709.2 ± 1	715 ± 1.1
298.15 K	656.1 ± 0.7	655.9 ± 0.7	660.1 ± 0.8	665.1 ± 0.8	673.9 ± 0.8	681.9 ± 0.9	689 ± 1	695.5 ± 1	701.7 ± 1.1
323.15 K	631.7 ± 0.8	633.1 ± 0.7	638.2 ± 0.8	644.2 ± 0.8	654.7 ± 0.8	663.9 ± 0.9	671.9 ± 1	679.3 ± 1	686.1 ± 1.1
348.15 K	–	608.5 ± 0.8	614.9 ± 0.8	622.1 ± 0.8	634.6 ± 0.9	645.2 ± 0.9	654.4 ± 1	662.6 ± 1.1	670.2 ± 1.1
373.15 K	–	582.6 ± 3	591 ± 3	600 ± 3	614.8 ± 3	627 ± 3.1	637.4 ± 3.1	646.6 ± 3.1	654.9 ± 3.1
423.15 K	–	521.2 ± 3.1	536.9 ± 3.1	551.5 ± 3	573.2 ± 3.1	589.7 ± 3.1	603.2 ± 3.1	614.6 ± 3.1	624.8 ± 3.2
463.15 K	–	–	484.2 ± 3.1	508.5 ± 3.1	538.9 ± 3.1	559.8 ± 3.1	575.9 ± 3.1	589.3 ± 3.2	600.7 ± 3.2

CCCCCCCCCC [decane]
mass density [kg/m3]
Details	100 kPa	1000 kPa	5000 kPa	10000 kPa	20000 kPa	30000 kPa	40000 kPa	50000 kPa	60000 kPa
278.15 K	741.6 ± 0.7	742.2 ± 0.7	745 ± 0.7	748.3 ± 0.7	754.4 ± 0.8	760.1 ± 0.8	765.4 ± 0.8	770.4 ± 0.9	775.3 ± 0.9
298.15 K	726.7 ± 0.7	727.4 ± 0.7	730.5 ± 0.7	734.2 ± 0.7	740.9 ± 0.8	747.2 ± 0.8	753 ± 0.8	758.4 ± 0.9	763.7 ± 0.9
323.15 K	707.4 ± 0.7	708.4 ± 0.7	711.9 ± 0.7	716.2 ± 0.8	724 ± 0.8	731.1 ± 0.8	737.5 ± 0.9	743.5 ± 0.9	749.2 ± 1
348.15 K	687.6 ± 0.8	688.6 ± 0.7	692.8 ± 0.7	697.7 ± 0.8	706.7 ± 0.8	714.6 ± 0.8	721.8 ± 0.9	728.4 ± 0.9	734.6 ± 1
373.15 K	667.1 ± 5	668.8 ± 3	673.8 ± 3	679.6 ± 3	689.8 ± 3	698.8 ± 3	706.8 ± 3.1	714.1 ± 3.1	720.8 ± 3.1
423.15 K	624.8 ± 5	627.2 ± 3	634.5 ± 3	642.4 ± 3	655.8 ± 3	667.1 ± 3	677 ± 3.1	685.9 ± 3.1	693.8 ± 3.1
463.15 K	–	590.4 ± 5	600.3 ± 3	610.8 ± 3	627.8 ± 3	641.4 ± 3.1	653.1 ± 3.1	663.3 ± 3.1	672.1 ± 3.1

CCCCCCCCCCCCCCCC [hexadecane]
mass density [kg/m3]
Details	100 kPa	1000 kPa	5000 kPa	10000 kPa	20000 kPa	30000 kPa	40000 kPa	50000 kPa	60000 kPa
298.15 K	770.5 ± 0.7	771.1 ± 0.7	773.6 ± 0.7	776.9 ± 0.7	782.6 ± 0.8	788.1 ± 0.8	–	–	–
323.15 K	753.1 ± 0.7	753.9 ± 0.7	756.8 ± 0.7	760.4 ± 0.7	766.9 ± 0.8	772.9 ± 0.8	778.5 ± 0.8	783.8 ± 0.9	788.7 ± 0.9
348.15 K	735.6 ± 0.7	736.5 ± 0.7	739.8 ± 0.7	743.8 ± 0.8	751.1 ± 0.8	757.8 ± 0.8	763.9 ± 0.9	769.7 ± 0.9	775.1 ± 0.9
373.15 K	717.8 ± 5	719.4 ± 3	723.2 ± 3	727.7 ± 3	735.9 ± 3	743.4 ± 3	750.3 ± 3	756.5 ± 3.1	762.4 ± 3.1
423.15 K	680.8 ± 5	684.1 ± 3	689.2 ± 3	695.1 ± 3	705.5 ± 3	714.7 ± 3	722.9 ± 3.1	730.4 ± 3.1	737.2 ± 3.1
463.15 K	651.6 ± 5	654.5 ± 5	661 ± 3	668.5 ± 3	681.2 ± 3	692 ± 3	701.4 ± 3.1	709.8 ± 3.1	717.5 ± 3.1

CCCCCCCCCCCC [dodecane]
mass density [kg/m3]
Details	100 kPa	1000 kPa	5000 kPa	10000 kPa	20000 kPa	30000 kPa	40000 kPa	50000 kPa	60000 kPa
278.15 K	759.2 ± 0.7	760.5 ± 0.8	763.1 ± 0.7	766.2 ± 0.7	771.9 ± 0.8	777.3 ± 0.8	782.3 ± 0.8	787.1 ± 0.9	791.7 ± 0.9
298.15 K	745.6 ± 0.7	746.2 ± 0.7	749 ± 0.7	752.4 ± 0.7	758.7 ± 0.8	764.7 ± 0.8	770.1 ± 0.8	775.3 ± 0.9	780.2 ± 0.9
323.15 K	727.2 ± 0.7	728.2 ± 0.7	731.4 ± 0.7	735.3 ± 0.7	742.6 ± 0.8	749.2 ± 0.8	755.2 ± 0.8	760.9 ± 0.9	766.3 ± 0.9
348.15 K	708.7 ± 0.7	709.6 ± 0.7	713.4 ± 0.7	717.8 ± 0.8	726.1 ± 0.8	733.5 ± 0.8	740.2 ± 0.9	746.4 ± 0.9	752.3 ± 1
373.15 K	–	690.8 ± 3	695.2 ± 3	700.4 ± 3	709.8 ± 3	718.1 ± 3	725.6 ± 3	732.5 ± 3.1	738.9 ± 3.1
423.15 K	–	652.6 ± 3	658.7 ± 3	665.6 ± 3	677.6 ± 3	688 ± 3	697 ± 3.1	705.3 ± 3.1	712.8 ± 3.1
463.15 K	–	–	627.9 ± 3	636.9 ± 3	651.8 ± 3	664.2 ± 3.1	674.8 ± 3.1	684.1 ± 3.1	692.6 ± 3.1
